This passage reports CC50, IC50 and selectivity ratio results from ChEMBL document CHEMBL5143580, “Ophiorrhines F and G, Key Biogenetic Intermediates of Ophiorrhine Alkaloids from Ophiorrhiza japonica and Their Immunosuppressant Activities” (J Nat Prod, 2022).

For orientation: CC50 means the concentration that lowers cell viability or growth by half. What is called IC50 is the point on the concentration scale where inhibition reaches its midpoint.

Data set [1] is described as follows: Cytotoxicity in BALB/c mouse Splenocyte assessed as reduction in cell viability incubated for 48 hrs by CCK-8 assay. The data set is classed as toxicity, cell-based. Conditions: splenocytes. (Formazan colour is commonly taken as a measure of viable cells.)
The subject of data set [2] is Splenocyte. Description: Immunosuppressive activity in BALB/c mouse Splenocyte assessed as inhibition of concanavalin A induced T-cell proliferation by [3H]-thymidine incorporation based beta scintillation counter analysis. The data set is classed as functional.
Data set [3] relates to Splenocyte. Description: Immunosuppressive activity in BALB/c mouse Splenocyte assessed as inhibition of LPS induced B-cell proliferation by [3H]-thymidine incorporation based beta scintillation counter analysis. In kind it is functional. Background: Uptake of a labelled nucleoside into DNA is a usual measure of proliferation.
Data set [4] in a line: Selectivity index, ratio of CC50 for BALB/c mouse Splenocyte to IC50 for Immunosuppressive activity in BALB/c mouse Splenocyte assessed as inhibition of concanavalin A-induced T-cell proliferation. In kind it is toxicity. The settings on record: splenocytes, read-out: Ratio CC50/IC50.
A short description of data set [5]: Selectivity index, ratio of CC50 for BALB/c mouse Splenocyte to IC50 for Immunosuppressive activity in BALB/c mouse Splenocyte assessed as inhibition of LPS-induced B-cell proliferation. In kind it is toxicity. Conditions: splenocytes, read-out: Ratio CC50/IC50.

For `C=C[C@H]1[C@H](O[C@@H]2O[C@H](CO)[C@@H](O)[C@H](O)[C@H]2O)OC=C(C(=O)OC)[C@H]1CC(=O)c1[nH]c2ccccc2c1CC(=O)NC`, the CC50 at 48 h in data set [1] worked out at 170 µM. In addition, the IC50 in data set [2] was > 200 µM; in data set [3], 47.4 µM. The selectivity ratio in data set [4] is < 0.85; in data set [5], 3.59.

As for `C=C[C@H]1[C@H](O[C@@H]2O[C@H](CO)[C@@H](O)[C@H](O)[C@H]2O)OC=C(C(=O)OC)[C@H]1CC(=O)c1[nH]c2ccccc2c1[C@H](OC)C(=O)NC`, in data set [1], the CC50 at 48 h is 208 µM. Besides, the IC50 in data set [2] is > 200 µM; in data set [3], < 0.38 µM. The selectivity ratio in data set [4] was < 1.04; in data set [5], > 548.
